Measurements published in article PMC13136073, “Discovery of 4‐Quinazolinone‐Containing Phenylalanine Derivatives as Potent, Resistant‐Tolerant HIV Capsid Inhibitors” (MedComm, 2026).

Assay: Stability in human liver microsomes
Assay type: in vitro ADME
Conditions: HLM, scaled

O=C(O)Cc1ccccc1Nc1c(Cl)cccc1Cl [Diclofenac, diclofenac]
CLint(liver): 200.0 mL/min/kg
